Laboratory results taken from ChEMBL document CHEMBL3045299, “Chromano-analogs of Insecticidal Neolignans of the 1,4-Benzodioxane Type” (1993).

Test system: Musca domestica
Assay: Insecticidal activity against Musca domestica (house fly) assessed as mortality per fly pretreated with piperonyl butoxide measured after 24 hr
Type: functional

Point of comparison: `COCC1Oc2cc([C@H]3OC[C@]4(O)[C@@H](Oc5c(OC)cccc5OC)OC[C@H]34)c(OC)cc2CC1c1ccc2c(c1)OCO2` (mixture of isomers), LD50 0.005 µg. Against it:
- COC[C@H]1Oc2cc([C@H]3OC[C@]4(O)[C@@H](Oc5ccc6c(c5)OCO6)OC[C@H]34)c(OC)cc2O[C@@H]1c1ccc2c(c1)OCO2 (racemic) [(+)-HAEDOXAN E] — higher, 0.1 µg
- COCC1Cc2cc([C@H]3OC[C@]4(O)[C@@H](Oc5c(OC)cccc5OC)OC[C@H]34)c(OC)cc2OC1c1ccc2c(c1)OCO2 (mixture of isomers) — higher, 1 µg
- COC[C@H]1Oc2cc([C@H]3OC[C@]4(O)[C@@H](Oc5c(OC)cc6c(c5OC)OCO6)OC[C@H]34)c(OC)cc2O[C@@H]1c1ccc2c(c1)OCO2 (racemic) [(+)-HAEDOXAN A] — lower, 0.00025 µg
- COC[C@H]1Oc2cc([C@H]3OC[C@]4(O)[C@@H](Oc5ccc6c(c5)OCO6)OC[C@H]34)c(OC)cc2O[C@@H]1c1ccc2c(c1)OCO2 [(+)-HAEDOXAN E] — higher, 0.05 µg
- COCC1Oc2cc([C@H]3OC[C@]4(O)[C@@H](Oc5ccc6c(c5)OCO6)OC[C@H]34)c(OC)cc2OC1c1ccc2c(c1)OCO2 (mixture of isomers) — higher, 0.18 µg

For `COC[C@@H]1Oc2cc([C@H]3OC[C@]4(O)[C@@H](Oc5ccc6c(c5)OCO6)OC[C@H]34)c(OC)cc2O[C@H]1c1ccc2c(c1)OCO2` (racemic), the LD50 was over 5 µg.
In the case of `COCC1Cc2cc([C@@H]3OC[C@]4(O)[C@@H](Oc5c(OC)cccc5OC)OC[C@H]34)c(OC)cc2OC1c1ccc2c(c1)OCO2` (mixture of isomers), the LD50 was over 10 µg.
